The supplement of paper PMC10307832

Assays:
Experiment in all cases: relative viability (nuclei count vs DMSO), 5 days (fraction); higher = more cells survive
[1] = compound: C[As](C)SC[C@H](NC(=O)CC[C@H](N)C(=O)O)C(=O)NCC(=O)O [Darinaparsin] + CC(=O)c1c(C)c2cnc(Nc3ccc(N4CCNCC4)cn3)nc2n(C2CCCC2)c1=O [Palbociclib] (partner 0.5 µM)
Summary of the method: (§1)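 Five library-drug doses in √10 steps were combined with a fixed anchor-drug dose, or a single drug was given alone, by pin tool to lung cancer cell lines in 1536-well plates the day after seeding. Nuclei were stained and counted after 5 days. Relative viability is the nuclei count in treated wells over that in vehicle wells, taken as the median of duplicate plates.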

[2] = compound: C[As](C)SC[C@H](NC(=O)CC[C@H](N)C(=O)O)C(=O)NCC(=O)O [Darinaparsin] + CC(=O)Nc1cccc(-n2c(=O)n(C3CC3)c(=O)c3c(Nc4ccc(I)cc4F)n(C)c(=O)c(C)c32)c1 [Trametinib] (partner 0.02 µM)
Summary of the method: as §1

QS11 + Pictilisib = compound: C1CC2=C(C1)C=C(C=C2)OC3=NC(=C4C(=N3)N(C=N4)CC5=CC=C(C=C5)C6=CC=CC=C6)N[C@@H](CC7=CC=CC=C7)CO [QS11] + CS(=O)(=O)N1CCN(Cc2cc3nc(-c4cccc5[nH]ncc45)nc(N4CCOCC4)c3s2)CC1 [Pictilisib] (partner 1 µM)
Summary of the method: as §1

Darinaparsin + AZD7762 = compound: C[As](C)SC[C@H](NC(=O)CC[C@H](N)C(=O)O)C(=O)NCC(=O)O [Darinaparsin] + NC(=O)Nc1cc(-c2cccc(F)c2)sc1C(=O)N[C@H]1CCCNC1 [AZD7762] (partner 0.2 µM)
Summary of the method: as §1

| Cell Line | relative viability ([1]; first compound 0.08 µM) | relative viability ([1]; first compound 0.8 µM) | relative viability ([1]; first compound 2.53 µM) | relative viability ([1]; first compound 8 µM) | relative viability ([2]; first compound 0.08 µM) | relative viability ([2]; first compound 0.8 µM) | relative viability ([2]; first compound 2.53 µM) | relative viability ([2]; first compound 8 µM) | relative viability (QS11 + Pictilisib; first compound 0.08 µM) | relative viability (QS11 + Pictilisib; first compound 0.253 µM) | relative viability (QS11 + Pictilisib; first compound 0.8 µM) | relative viability (QS11 + Pictilisib; first compound 2.53 µM) | relative viability (QS11 + Pictilisib; first compound 8 µM) | relative viability (Darinaparsin + AZD7762; first compound 0.08 µM) | relative viability (Darinaparsin + AZD7762; first compound 0.8 µM) | relative viability (Darinaparsin + AZD7762; first compound 2.53 µM) | relative viability (Darinaparsin + AZD7762; first compound 8 µM) |
| --- | --- | --- | --- | --- | --- | --- | --- | --- | --- | --- | --- | --- | --- | --- | --- | --- | --- |
| 201T | 0.345 | 0.342 | 0.363 | 0.368 | 0.777 | 0.728 | 0.711 | 0.751 | 0.669 | 0.599 | 0.634 | 0.672 | 0.611 | 0.707 | 0.669 | 0.527 | 0.658 |
| A549 |  |  |  |  |  |  |  |  | 0.623 | 0.558 | 0.396 | 0.41 | 0.208 |  |  |  |  |
| A-427 | 0.585 | 0.494 | 0.567 | 0.549 | 0.721 | 0.663 | 0.758 | 0.796 | 0.546 | 0.788 |  | 0.608 | 0.824 | 0.696 | 0.681 | 0.747 | 0.589 |
| ABC-1 | 0.879 | 0.6 | 0.744 | 0.729 |  |  |  |  | 0.657 | 0.6 | 0.651 | 0.764 | 1.06 | 0.747 | 0.82 | 0.851 | 0.968 |
| BEN | 0.492 | 0.445 | 0.488 | 0.43 | 1.18 | 0.998 | 0.991 | 1.12 | 0.554 | 0.641 | 0.529 | 0.524 | 0.705 | 0.691 | 0.729 | 0.648 | 0.797 |
| CAL-12T | 0.446 | 0.387 | 0.408 | 0.478 | 0.333 | 0.376 | 0.383 | 0.306 | 0.446 | 0.412 | 0.665 | 0.314 | 0.38 | 0.773 | 0.541 | 0.694 | 0.648 |
| COR-L23 | 0.303 | 0.335 | 0.246 | 0.299 | 0.699 | 0.581 | 0.538 | 0.681 | 0.807 | 0.717 | 0.806 | 0.662 | 0.681 |  |  |  |  |
| COR-L 105 | 0.456 | 0.373 | 0.397 | 0.382 | 0.473 | 0.456 | 0.427 | 0.45 | 0.346 | 0.359 | 0.34 | 0.372 | 0.347 |  |  |  |  |
| Calu-6 |  |  |  |  |  |  |  |  | 1.02 | 0.907 | 0.918 | 1.15 | 1 |  |  |  |  |
| ChaGo-K-1 | 0.95 | 0.958 | 0.856 | 1.06 | 0.914 | 0.862 | 0.785 | 0.984 |  | 0.841 | 0.882 | 1.24 | 1.05 | 0.979 | 0.931 | 0.789 | 1.03 |
| EBC-1 |  |  |  |  |  |  |  |  | 0.331 | 0.266 | 0.404 | 0.454 | 0.478 |  |  |  |  |
| EKVX | 0.451 | 0.365 | 0.366 | 0.38 | 0.339 | 0.33 | 0.344 | 0.333 | 0.444 | 0.379 |  | 0.413 | 0.467 | 0.817 | 0.739 | 0.726 | 0.82 |
| EMC-BAC-2 | 0.516 | 0.491 | 0.515 | 0.54 | 0.909 | 0.802 | 1.01 | 0.887 | 0.535 | 0.486 | 0.569 | 0.604 | 0.442 | 1.18 | 1.04 | 1.28 | 1.26 |
| EPLC-272H | 0.318 | 0.315 | 0.333 | 0.292 | 0.292 | 0.311 | 0.31 | 0.305 | 0.372 | 0.347 | 0.298 | 0.387 | 0.274 | 0.206 | 0.176 | 0.117 | 0.215 |
| H3255 | 0.303 | 0.313 | 0.329 | 0.294 | 0.595 | 0.812 | 0.574 | 0.62 | 0.37 | 0.523 |  | 0.541 | 0.537 | 0.858 | 0.915 | 0.797 | 1.05 |
| HARA | 0.25 | 0.257 | 0.21 | 0.29 | 0.825 |  | 0.733 | 0.638 | 0.358 | 0.46 |  | 0.383 | 0.36 | 0.417 |  | 0.335 | 0.371 |
| HCC-15 | 0.639 | 0.773 | 0.723 | 0.882 | 0.409 | 0.321 | 0.27 | 0.415 | 0.732 | 0.868 |  | 0.816 | 0.719 | 1.48 | 1.32 | 1.11 | 1.12 |
| HCC-44 | 1.04 | 0.916 | 1.02 | 1 | 1.11 | 1.2 | 0.942 | 1.1 | 0.804 | 0.432 | 0.565 | 0.406 | 0.431 | 1.02 | 1.03 | 1.08 | 1.05 |
| HCC-78 | 0.46 | 0.509 | 0.475 | 0.503 | 0.823 | 0.673 | 0.879 | 1.24 | 0.206 | 0.185 | 0.206 | 0.222 | 0.29 | 0.587 | 0.706 | 0.58 | 0.699 |
| HCC-366 | 0.603 |  | 0.368 | 0.533 | 0.393 |  | 0.336 | 0.378 | 0.138 | 0.133 |  | 0.202 | 0.0869 | 0.339 |  | 0.222 | 0.332 |
| HCC-827 | 0.514 | 0.519 | 0.414 | 0.477 | 0.578 | 0.502 | 0.566 | 0.508 | 0.881 | 1.03 | 0.953 | 1.13 | 0.95 | 0.181 | 0.211 | 0.188 | 0.188 |
| HOP-62 | 0.541 | 0.411 | 0.385 | 0.593 | 0.401 | 0.385 | 0.316 | 0.428 | 0.822 | 0.688 | 0.738 | 0.514 | 0.435 | 0.669 | 0.518 | 0.497 | 0.782 |
| IA-LM |  |  |  |  |  |  |  |  | 0.387 | 0.343 |  | 0.257 | 0.354 |  |  |  |  |
